Assays:
Format in all cases: binding
[1] = molecular target: T1, monomeric sarcosine oxidase (MSOX) (Bacillus sp. B-0618, UniProt P40859, K266M); assay: absorption spectral titration of charge transfer band
T1 sequence (P40859 2-390 K266M): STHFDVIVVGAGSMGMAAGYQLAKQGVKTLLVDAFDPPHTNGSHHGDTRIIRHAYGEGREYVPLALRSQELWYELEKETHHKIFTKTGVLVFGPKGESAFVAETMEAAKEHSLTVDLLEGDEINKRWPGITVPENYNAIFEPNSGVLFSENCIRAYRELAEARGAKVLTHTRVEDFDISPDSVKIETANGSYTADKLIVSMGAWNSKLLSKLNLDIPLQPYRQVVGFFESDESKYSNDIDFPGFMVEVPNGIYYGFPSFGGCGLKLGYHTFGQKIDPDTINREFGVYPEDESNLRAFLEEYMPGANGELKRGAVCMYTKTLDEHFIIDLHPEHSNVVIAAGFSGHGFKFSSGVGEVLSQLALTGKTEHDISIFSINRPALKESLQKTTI

[2] = molecular target: T2, monomeric sarcosine oxidase (MSOX) (Bacillus sp. B-0618, UniProt P40859, K266R); assay: as above
T2 sequence (P40859 2-390 K266R): T1 sequence (P40859 2-390 K266M)

[3] = molecular target: T2, monomeric sarcosine oxidase (MSOX); assay: stopped-flow diode array, initial charge transfer absorbance
[4] = molecular target: T1, monomeric sarcosine oxidase (MSOX); assay: as above

SMILES: CSCC(=O)O [methylthioacetate]
- Kd [1]: 13.3 ± 0.3 mM
- Kd [2]: 6.9 ± 0.1 mM

SMILES: CNCC(=O)O [sarcosine, N-methylglycine]
- Kd [3]: 34 ± 1 mM
- Kd [4]: 58 ± 10 mM

From paper PMC2764408 (Biochemistry, 2008)
